# Experimental data taken from patent US20230329236A1, “HERBICIDAL PYRIMIDINE DERIVATIVES” (MoA Technology Limited, priority 2020, published 2023).
# How the values were obtained:
# [1] = system: Zea mays (ZEAMX); assay: Post-emergence glasshouse test, visual injury, ZEAMX; assay type: in vivo; conditions: Table 4, post-emergence, 14±1 days post application
# Method: (§1) Seeds of a variety of test species are grown in a sandy loam soil mixture, Lolium multiflorum (LOLMU), Amaranthus retroflexus (AMARE), Echinochloa crus-gaffi (ECHCG), Veronica persica (VERPE), Glycine max (GLXMA), Oryza sativa (ORYSA), Zea mays (ZEAMX), spring wheat (TRZAS), Ipomoea hederacea (IPOHE), Ipomoea purpurea (PHBPU), Stellaria media (STEME), Solanum nigrum (SOLNI), Digitaria sanguinalis (DIGSA), Setaria italica (SETIT), Alopecurus myosuroides (ALOMY) and Avena fatua (AVEFA).
# (§2) After sowing, at growth stage BBCH 12-14 (post-emergence), the plants are sprayed with an aqueous spray solution derived from the formulation of the technical active ingredient in acetone/water (50:50) solution containing 0.5% Tween 20 (polyoxyethlyene sorbitan monolaureate, CAS RN 9005-64-5). The test compounds are applied at the required concentration of active ingredient in g/ha. The test plants are then grown in a glasshouse under controlled environmental conditions and watered regularly as required. After 14±1 days post application (for post-emergence test), the test is evaluated by assessing the percentage damage caused to the plants in comparison with the untreated plots. The biological activities for post-emergence testing are shown below (Table 3 and Table 4) as a % visual injury.
# [2] = system: Oryza sativa (ORYSA); assay: Post-emergence glasshouse test, visual injury, ORYSA; assay type: in vivo; conditions: Table 4, post-emergence, 14±1 days post application
# Method: as §1, §2
# [3] = system: Alopecurus myosuroides (ALOMY); assay: Post-emergence glasshouse test, visual injury, ALOMY; assay type: in vivo; conditions: Table 4, post-emergence, 14±1 days post application
# Method: as §1, §2
# [4] = system: Echinochloa crus-gaffi (ECHCG); assay: Post-emergence glasshouse test, visual injury, ECHCG; assay type: in vivo, Echinochloa crus-galli; conditions: 336 h, 14±1 days post application
# Procedure, shortened: (§3)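 Values give visual injury (%) 14±1 days after a post-emergence spray at BBCH 12-14, with the active ingredient applied in g/ha from an acetone/water (50:50) solution containing 0.5% Tween 20.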
# [5] = system: Digitaria sanguinalis (DIGSA); assay: Post-emergence glasshouse test, visual injury, DIGSA; assay type: in vivo; conditions: Table 4, post-emergence, 14±1 days post application
# Method: as §1, §2
# [6] = system: Solanum nigrum (SOLNI); assay: Post-emergence glasshouse test, visual injury, SOLNI; assay type: in vivo; conditions: Table 4, post-emergence, 14±1 days post application
# Method: as §1, §2
# [7] = system: Avena fatua (AVEFA); assay: Post-emergence glasshouse test, visual injury, AVEFA; assay type: in vivo; conditions: Table 4, post-emergence, 14±1 days post application
# Method: as §1, §2
# [8] = system: Lolium multiflorum (LOLMU); assay: Post-emergence glasshouse test, visual injury, LOLMU; assay type: in vivo; conditions: 336 h, 14±1 days post application
# Procedure, shortened: as §3
# [9] = system: Amaranthus retroflexus (AMARE); assay: Post-emergence glasshouse test, visual injury, AMARE; assay type: in vivo; conditions: 336 h, 14±1 days post application
# Procedure, shortened: as §3
# [10] = system: Veronica persica (VERPE); assay: Post-emergence glasshouse test, visual injury, VERPE; assay type: in vivo; conditions: 336 h, 14±1 days post application
# Procedure, shortened: as §3
# [11] = system: Ipomoea hederacea (IPOHE); assay: Post-emergence glasshouse test, visual injury, IPOHE; assay type: in vivo; conditions: Table 4, post-emergence, 14±1 days post application
# Method: as §1, §2
# [12] = system: Ipomoea purpurea (PHBPU); assay: Post-emergence glasshouse test, visual injury, PHBPU; assay type: in vivo; conditions: Table 4, post-emergence, 14±1 days post application
# Method: as §1, §2
# [13] = system: Setaria italica (SETIT); assay: Post-emergence glasshouse test, visual injury, SETIT; assay type: in vivo; conditions: Table 4, post-emergence, 14±1 days post application
# Method: as §1, §2
# [14] = system: Stellaria media (STEME); assay: Post-emergence glasshouse test, visual injury, STEME; assay type: in vivo; conditions: Table 4, post-emergence, 14±1 days post application
# Method: as §1, §2
# [15] = system: Glycine max (GLXMA); assay: Post-emergence glasshouse test, visual injury, GLXMA; assay type: in vivo; conditions: Table 4, post-emergence, 14±1 days post application
# Method: as §1, §2
# [16] = system: spring wheat (TRZAS); assay: Post-emergence glasshouse test, visual injury, TRZAS; assay type: in vivo; conditions: Table 4, post-emergence, 14±1 days post application
# Method: as §1, §2
# [17] = Table 4, post-emergence, 125 g/ha
# [18] = Table 4, post-emergence, 250 g/ha
# [19] = Table 4, post-emergence, 1000 g/ha
structure (smiles),measurement,setting,value
Cc1cc(-c2cnc(NCc3ccc(F)cc3)nc2C2CC2)on1 [Compound 16],ZEAMX % visual injury,[1]; 125 g/ha,60%
same,ZEAMX % visual injury,[1]; 250 g/ha,60%
same,ZEAMX % visual injury,[1]; 500 g/ha,50%
same,ZEAMX % visual injury,[1]; 1000 g/ha,70%
same,ORYSA % visual injury,[2]; 125 g/ha,60%
same,ORYSA % visual injury,[2]; 250 g/ha,90%
same,ORYSA % visual injury,[2]; 500 g/ha,70%
same,ORYSA % visual injury,[2]; 1000 g/ha,60%
same,ALOMY % visual injury,[3]; 125 g/ha,70%
same,ALOMY % visual injury,[3]; 250 g/ha,80%
same,ALOMY % visual injury,[3]; 500 g/ha,80%
same,ALOMY % visual injury,[3]; 1000 g/ha,80%
same,pest or weed control at 500 g/ha,"[4]; Table 3, post-emergence",40%
same,pest or weed control at 125 g/ha,[4]; [17],80%
same,pest or weed control at 250 g/ha,[4]; [18],70%
same,pest or weed control at 500 g/ha,"[4]; Table 4, post-emergence",60%
same,pest or weed control at 1000 g/ha,[4]; [19],90%
same,DIGSA % visual injury,[5]; 125 g/ha,90%
same,DIGSA % visual injury,[5]; 250 g/ha,80%
same,DIGSA % visual injury,[5]; 500 g/ha,90%
same,DIGSA % visual injury,[5]; 1000 g/ha,90%
same,SOLNI % visual injury,[6]; 125 g/ha,98%
same,SOLNI % visual injury,[6]; 250 g/ha,99%
same,SOLNI % visual injury,[6]; 500 g/ha,100%
same,SOLNI % visual injury,[6]; 1000 g/ha,100%
same,AVEFA % visual injury,[7]; 125 g/ha,50%
same,AVEFA % visual injury,[7]; 250 g/ha,60%
same,AVEFA % visual injury,[7]; 500 g/ha,60%
same,AVEFA % visual injury,[7]; 1000 g/ha,60%
same,pest or weed control at 500 g/ha,"[8]; Table 3, post-emergence",0%
same,pest or weed control at 125 g/ha,[8]; [17],98%
same,pest or weed control at 250 g/ha,[8]; [18],90%
same,pest or weed control at 500 g/ha,"[8]; Table 4, post-emergence",100%
same,pest or weed control at 1000 g/ha,[8]; [19],95%
same,pest or weed control at 500 g/ha,"[9]; Table 3, post-emergence",95%
same,pest or weed control at 125 g/ha,[9]; [17],100%
same,pest or weed control at 250 g/ha,[9]; [18],100%
same,pest or weed control at 500 g/ha,"[9]; Table 4, post-emergence",100%
same,pest or weed control at 1000 g/ha,[9]; [19],100%
same,pest or weed control at 500 g/ha,"[10]; Table 3, post-emergence",95%
same,pest or weed control at 125 g/ha,[10]; [17],100%
same,pest or weed control at 250 g/ha,[10]; [18],100%
same,pest or weed control at 500 g/ha,"[10]; Table 4, post-emergence",100%
same,pest or weed control at 1000 g/ha,[10]; [19],100%
same,IPOHE % visual injury,[11]; 125 g/ha,40%
same,IPOHE % visual injury,[11]; 250 g/ha,80%
same,IPOHE % visual injury,[11]; 500 g/ha,100%
same,IPOHE % visual injury,[11]; 1000 g/ha,100%
same,PHBPU % visual injury,[12]; 125 g/ha,80%
same,PHBPU % visual injury,[12]; 250 g/ha,95%
same,PHBPU % visual injury,[12]; 500 g/ha,90%
same,PHBPU % visual injury,[12]; 1000 g/ha,90%
same,SETIT % visual injury,[13]; 125 g/ha,0%
same,SETIT % visual injury,[13]; 250 g/ha,30%
same,SETIT % visual injury,[13]; 500 g/ha,30%
same,SETIT % visual injury,[13]; 1000 g/ha,60%
same,STEME % visual injury,[14]; 125 g/ha,100%
same,STEME % visual injury,[14]; 250 g/ha,100%
same,STEME % visual injury,[14]; 500 g/ha,100%
same,STEME % visual injury,[14]; 1000 g/ha,100%
same,GLXMA % visual injury,[15]; 125 g/ha,50%
same,GLXMA % visual injury,[15]; 250 g/ha,40%
same,GLXMA % visual injury,[15]; 500 g/ha,70%
same,GLXMA % visual injury,[15]; 1000 g/ha,50%
same,TRZAS % visual injury,[16]; 125 g/ha,30%
same,TRZAS % visual injury,[16]; 250 g/ha,30%
same,TRZAS % visual injury,[16]; 500 g/ha,50%
same,TRZAS % visual injury,[16]; 1000 g/ha,50%
